Measurements taken from patent publication US7153849B2, “Antidepressant arylpiperazine derivatives of hetrocycle-fused benzodioxans” (Wyeth, priority 2002, dated 2006).
pEC50, pIC50, pKi: −log10 of the molar value. Structures can show the parent of a compound that is named as a salt.

Experiments:
human 5HT1A receptors = target: T1, human 5HT1A receptors (Homo sapiens, UniProt P08908); assay: [3H] 8-OH-DPAT displacement from 5HT1A receptor in stably transfected CHO cells; format: binding; details: CHO cells with human 5HT1A; for pKi: read-out: 5HT1A Receptor Affinity Ki
T1 construct: expressed in transfected cells; host or cells: CHO cells
T1 sequence (P08908 1-422): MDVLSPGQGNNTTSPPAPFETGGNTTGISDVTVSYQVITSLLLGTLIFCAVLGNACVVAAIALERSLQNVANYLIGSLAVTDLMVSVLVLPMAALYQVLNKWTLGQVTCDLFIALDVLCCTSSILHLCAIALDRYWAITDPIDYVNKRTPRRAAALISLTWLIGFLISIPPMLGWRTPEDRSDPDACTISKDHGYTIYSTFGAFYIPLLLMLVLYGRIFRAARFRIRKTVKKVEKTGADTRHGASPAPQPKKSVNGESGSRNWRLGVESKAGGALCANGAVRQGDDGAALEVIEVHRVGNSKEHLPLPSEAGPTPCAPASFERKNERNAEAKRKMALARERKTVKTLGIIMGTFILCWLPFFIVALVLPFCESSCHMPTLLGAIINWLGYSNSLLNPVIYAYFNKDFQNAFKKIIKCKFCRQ
Excerpt: High affinity for the serotonin 5HT1A receptor was established by testing the claimed compound's ability to displace [^3H] 8-OH-DPAT (dipropylamino-tetralin) from the 5HT1A serotonin receptor following a modification of the procedure of Hall et al., J. Neurochem. 44, 1685 (1985) which utilizes CHO cells stably transfected with human 5HT1A receptors.

serotonin transporter = target: T2, serotonin transporter (Rattus norvegicus, UniProt P31652); assay: 3H-paroxetine displacement from rat frontal cortical membranes (serotonin transporter affinity); format: binding; details: for pKi: 3H-paroxetine, male rat frontal cortical membranes, read-out: 5-HT Transporter Affinity Ki
T2 construct: displace ^3H-paroxetine from male rat frontal cortical membranes; from tissue; host or cells: male rat frontal cortical membranes
T2 sequence (P31652 whole entry): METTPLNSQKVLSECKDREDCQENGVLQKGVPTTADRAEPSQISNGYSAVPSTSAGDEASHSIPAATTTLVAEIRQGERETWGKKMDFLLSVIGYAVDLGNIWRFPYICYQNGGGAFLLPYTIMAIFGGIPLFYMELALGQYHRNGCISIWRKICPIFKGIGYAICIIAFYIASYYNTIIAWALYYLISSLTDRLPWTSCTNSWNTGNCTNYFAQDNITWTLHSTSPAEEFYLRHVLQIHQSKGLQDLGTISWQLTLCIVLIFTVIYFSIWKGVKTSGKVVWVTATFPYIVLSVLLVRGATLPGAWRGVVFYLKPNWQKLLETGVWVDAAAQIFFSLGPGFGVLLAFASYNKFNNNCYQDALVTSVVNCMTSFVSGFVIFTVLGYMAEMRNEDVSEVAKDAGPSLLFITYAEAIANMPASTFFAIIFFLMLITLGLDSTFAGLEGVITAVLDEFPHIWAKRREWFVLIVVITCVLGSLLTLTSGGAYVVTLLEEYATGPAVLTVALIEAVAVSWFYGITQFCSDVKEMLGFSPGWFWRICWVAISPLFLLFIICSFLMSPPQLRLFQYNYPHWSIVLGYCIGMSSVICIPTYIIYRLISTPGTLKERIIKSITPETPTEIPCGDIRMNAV

[1] = target: T3, cloned human 5HT1A receptors (Homo sapiens, UniProt P08908); assay: 35S-GTPγS binding assay, 5HT1A antagonist activity; format: biochemical; details: for 5HT1A Function Imax: maximum inhibitory effect, vs 8-OH-DPAT, unit assumed; for pIC50: reversal of 8-OH-DPAT (antagonist), read-out: 5HT1A Function IC50; for 5HT1A Function Emax / pEC50: increase in binding (agonist); for pEC50: read-out: 5HT1A Function EC50
T3 construct: expressed in transfected cells
T3 sequence (P08908 1-422): T1 sequence (P08908 1-422)
Procedure: Antagonist activity at 5HT1A receptors was established by using a ^35S-GTPγS binding assay similar to that used by Lazareno and Birdsall (Br. J. Pharmacol. 109:1120, 1993), in which the test compound's ability to affect the binding of ^35S-GTPγS to membranes containing cloned human 5HT1A receptors was determined. Agonists produce an increase in binding whereas antagonists produce no increase but rather reverse the effects of the standard agonist 8-OH-DPAT. The test compound's maximum inhibitory effect is represented as the Imax, while its potency is defined by the IC50.

Row | pKi (human 5HT1A receptors) | pKi (serotonin transporter) | pIC50 [1] | SMILES | 5HT1A Function Imax [1] [%] | further results
1 | – | – | – | Cc1ccc2c3c(ccc2n1)OC[C@H](CN1CCN(c2ccc(Cl)c(Cl)c2)CC1)O3 (as salt: fumarate) [Example 3, (2S)-2-{[4-(3,4-dichlorophenyl)piperazin-1-yl]methyl}-8-methyl-2,3-dihydro[1,4]dioxine[2,3-f]quinoline] | – | melting point: 140 to 144 °C
2 | – | – | – | Cc1ccc2c3c(ccc2n1)OC[C@H](CN1CCN(c2cccc4c2OCCO4)CC1)O3 (as salt: fumarate) [Example 7, (2S)-2-{[4-(dihydrobenzo[1,4]dioxin-5-yl)piperazin-1-yl]methyl}-8-methyl-2,3-dihydro[1,4]dioxino[2,3-f]quinoline] | – | melting point: 154 to 155 °C
3 | – | – | – | Cc1ccc2c3c(ccc2n1)OC[C@H](CN1CCN(c2ccc4ccccc4n2)CC1)O3 (as salt: hydrochloride) [Example 12, (2S)-8-methyl-2-[(4-quinolin-2-ylpiprazin-1-yl)methyl]-2,3-dihydro[1,4]dioxino[2,3-f]quinoline] | – | melting point: 237 to 243 °C
4 | – | – | – | Cc1ccc2c3c(ccc2n1)OC[C@H](CN1CCN(c2ccc4cc([N+](=O)[O-])ccc4n2)CC1)O3 (as salt: salt) [Example 13] | – | melting point: 200 °C (dec.)
5 | 7.64 | 6.25 | 6.20 | Cc1ccc2c3c(ccc2n1)OC[C@H](CN1CCN(c2ccc(Cl)cc2)CC1)O3 [Example 2, (2S)-2-{[4-(4-chlorophenyl)piperazin-1-yl]methyl}-8-methyl-2,3-dihydro[1,4]dioxino[2,3-f]quinoline] | 26 | –
6 | 5.98 | 7.12 | – | Cc1ccc2c3c(ccc2n1)OC[C@H](CN1CCN(c2ccc(Cl)c(Cl)c2)CC1)O3 [Example 3, (2S)-2-{[4-(3,4-dichlorophenyl)piperazin-1-yl]methyl}-8-methyl-2,3-dihydro[1,4]dioxine[2,3-f]quinoline] | – | –
7 | – | 8.92 | 6.25 | Cc1ccc2c3c(ccc2n1)OC[C@H](CN1CCN(c2cccc4c2OCCO4)CC1)O3 [Example 7, (2S)-2-{[4-(dihydrobenzo[1,4]dioxin-5-yl)piperazin-1-yl]methyl}-8-methyl-2,3-dihydro[1,4]dioxino[2,3-f]quinoline] | – | 5HT1A Receptor Affinity, % @ 1 μM (human 5HT1A receptors; @ 1 μM): 91% @ 1 μM
8 | 8.43 | 7.87 | 7.08 | Cc1ccc2c3c(ccc2n1)OC[C@H](CN1CCN(c2ccc4cc(C#N)ccc4n2)CC1)O3 [Example 15, 2-(4-{[(2S)-8-methyl-2,3-dihydro[1,4]dioxino[2,3-f]quinolin-2-yl]methyl}piperazin-1-yl}quinoline-6-carbonitrile] | – | –
9 | 7.55 | 6.58 | – | COc1cccc2c(N3CCN(C[C@H]4COc5ccc6nc(C)ccc6c5O4)CC3)coc12 [Example 16, (2S)-2-{[4-(7-methoxy-1-benzofuran-3-yl)-1-piperazinyl]methyl}-8-methyl-2,3-dihydro[1,4]dioxino[2,3-f]quinoline] | – | melting point: 56 °C
10 | 6.14 | 7.13 | – | Cc1ccc2c3c(ccc2n1)OC[C@H](CN1CCN(c2coc4ccc(F)cc24)CC1)O3 [Example 17, (2S)-2-{[4-(5-fluoro-1-benzofuran-3-yl)-1-piperazinyl]methyl}-8-methyl-2,3-dihydro[1,4]dioxino[2,3-f]quinoline] | – | –
11 | 7.39 | 7.80 | – | Cc1ccc2c3c(ccc2n1)OC[C@H](CN1CCN(c2coc4ccccc24)CC1)O3 [Example 18, (2S)-2-{[4-(1-benzofuran-3-yl)-1-piperazinyl]methyl}-8-methyl-2,3-dihydro[1,4]dioxino[2,3-f]quinoline] | – | –
12 | 7.27 | 7.70 | 5.34 | Cc1ccc2c3c(ccc2n1)OC[C@H](CN1CCN(c2ccc4ccccc4c2)CC1)O3 [Example 22, (2S)-8-methyl-2-{[4-(2-naphthyl)piperazin-1-yl]methyl}-2,3-dihydro[1,4]dioxino[2,3-f]quinoline] | 76 | –
13 | 8.14 | 6.51 | 7.24 | N#Cc1ccc2nc(N3CCN(C[C@H]4COc5ccc6ncccc6c5O4)CC3)ccc2c1 [Example 24, (2S)-2-[4-(2,3-Dihydro-[1,4]dioxino[2,3-f]quinolin-2-ylmethyl)-piperazin-1-yl]-quinoline-6-carbonitrile] | 58 | –
14 | 8.32 | 7.17 | – | CCc1ccc2c3c(ccc2n1)OC[C@H](CN1CCN(c2ccc4cc(C#N)ccc4n2)CC1)O3 [Example 25, (2S)-2-[4-(8-Ethyl-2,3-dihydro-[1,4]dioxino[2,3-f]quinolin-2-ylmethyl)-piperazin-1-yl]-quinoline-6-carbonitrile] | – | 5HT1A Function Emax [1]: 67; pEC50 [1]: 5.95
15 | 7.60 | 6.39 | – | Cc1nc2ccc3c(c2o1)O[C@@H](CN1CCN(c2ccc4cc(C#N)ccc4n2)CC1)CO3 [Example 26, (2S)-2-[4-(2-Methyl-7,8-dihydro-1,6,9-trioxa-3-aza-cyclopenta[a]naphthalen-8-ylmethyl)-piperazin-1-yl]-quinoline-6-carbonitrile] | – | 5HT1A Function Emax [1]: 64; pEC50 [1]: 6.15
16 | 8.90 | 6.70 | 5.88 | Cc1ccc2c3c(ccc2n1)OC[C@H](CN1CCNCC1)O3 [Example 29, 8-Methyl-2-piperazin-1-ylmethyl-2,3-dihydro-[1,4]dioxino[2,3-f]quinoline] | 100 | –
17 | – | – | – | COc1ccc2nc(N3CCN(C[C@H]4COc5ccc6nc(C)ccc6c5O4)CC3)ccc2c1 [Example 30, (2S)-2-{[4-(6-methoxyquinolin-2-yl)piperazin-1-yl]methyl]-8-methyl-2,3-dihydro[1,4]dioxino[2,3-f]quinoline] | – | melting point: 158 to 160 °C
18 | 8.76 | 8.14 | 6.50 | COc1ccc2nc(N3CCCN(C[C@H]4COc5ccc6nc(C)ccc6c5O4)CC3)ccc2c1 [Example 33, (2S)-2-{[4-(6-methoxyquinolin-2-yl)-1,4-diazepan-1-yl]methyl]-8-methyl-2,3-dihydro[1,4]dioxino[2,3-f]quinoline] | 92 | –

Row | SMILES | pKi (human 5HT1A receptors) | pKi (serotonin transporter) | pIC50 [1] | 5HT1A Function Imax [1] [%] | further results
19 | Cc1ccc2c3c(ccc2n1)OC[C@H](CN1CCN(c2ccc4ccccc4n2)CC1)O3 [Example 12, (2S)-8-methyl-2-[(4-quinolin-2-ylpiprazin-1-yl)methyl]-2,3-dihydro[1,4]dioxino[2,3-f]quinoline] | 7.33 | 7.32 | 5.52 | 100 | –
20 | Cc1ccc2c3c(ccc2n1)OC[C@H](CN1CCN(c2ccc4cc([N+](=O)[O-])ccc4n2)CC1)O3 [Example 13] | 7.70 | 9.60 | 6.49 | 70 | –
21 | Cc1ccc2c3c(ccc2n1)OC[C@H](CN1CCN(c2ccc4cc(Cl)ccc4n2)CC1)O3 [Example 14] | 6.67 | 9.19 | 7.13 | 58 | –
22 | Cc1ccc2c3c(ccc2n1)OC[C@H](CN1CCN(c2ccc4cc(C#N)ccc4n2)C[C@H]1C)O3 [Example 20] | 8.55 | 6.16 | 7.08 | 92 | –
23 | Cc1ccc2c3c(ccc2n1)OC[C@H](CN1CCN(c2ccc4cc(C(N)=O)ccc4n2)CC1)O3 [Example 23] | 8.14 | – | 6.89 | 71 | 5-HT Transporter Affinity, % @ 1 μM (serotonin transporter): 56% @ 1 μM
